Values joined by “and” are separate entries in the source; they are usually repeats but may differ in a detail not shown here. Equal entries are not always repeated. Inconclusive results and toxic doses are left out.
Tested on: CD2F1 mice, L1210 leukemia ip, survival T/C
Assay: NCI In Vivo Anticancer Drug Screen. Data for tumor model L1210 Leukemia (intraperitoneal) in CD2F1 (CDF1) mice
Conditions: endpoint: mean survival time, higher = longer survival
Method in brief: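 Ratio T/C, where T is the treated-group value and C the vehicle-dosed control value, from mice implanted with a transplantable tumor.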

With `O=S(=O)(O)c1ccc(-c2ccc(S(=O)(=O)O)cc2)cc1` (tested in a mixture with another compound) the T/C (dose: 6.3 mg/kg/injection, schedule: Q01DX009 (ip), vehicle: saline) was 95 % of control, the T/C (dose: 6.3 mg/kg/injection, schedule: Q04DX003 (ip), vehicle: saline) was 121 % of control and 108 % of control and the T/C (dose: 12.0 mg/kg/injection, schedule: Q01DX001 (ip), vehicle: saline) was 118 % of control. For the same compound, the T/C (dose: 12.5 mg/kg/injection, schedule: Q01DX001 (ip), vehicle: saline) was 117 % of control and 123 % of control, the T/C (dose: 12.5 mg/kg/injection, schedule: Q01DX009 (ip), vehicle: saline) was 150 % of control and the T/C (dose: 12.5 mg/kg/injection, schedule: Q04DX003 (ip), vehicle: saline) was 122 % of control. For the same compound, the T/C (dose: 25.0 mg/kg/injection, schedule: Q01DX009 (ip), vehicle: saline) was 162 % of control and 172 % of control and 180 % of control, the T/C (dose: 50.0 mg/kg/injection, schedule: Q01DX001 (ip), vehicle: saline) was 150 % of control and the T/C (dose: 50.0 mg/kg/injection, schedule: Q01DX009 (ip), vehicle: saline) was 115 % of control and 205 % of control and 342 % of control. The T/C (dose: 50.0 mg/kg/injection, schedule: Q04DX003 (ip), vehicle: saline) was 160 % of control and 190 % of control and 205 % of control, the T/C (dose: 75.0 mg/kg/injection, schedule: Q04DX003 (ip), vehicle: saline) was 195 % of control and the T/C (dose: 100.0 mg/kg/injection, schedule: Q01DX009 (ip), vehicle: saline) was 100 % of control and 102 % of control. The T/C (dose: 100.0 mg/kg/injection, schedule: Q04DX003 (ip), vehicle: saline) was 248 % of control and 275 % of control and 489 % of control, the T/C (dose: 150.0 mg/kg/injection, schedule: Q04DX003 (ip), vehicle: saline) was 217 % of control and the T/C (dose: 200.0 mg/kg/injection, schedule: Q04DX003 (ip), vehicle: saline) was 120 % of control.
In the case of `C=C(Br)CNC(=O)CCCl`, the T/C (dose: 1.56 mg/kg/injection, schedule: Q01DX009 (ip), vehicle: other) is reported as 102 % of control, the T/C (dose: 3.13 mg/kg/injection, schedule: Q01DX009 (ip), vehicle: other) is reported as 103 % of control and the T/C (dose: 6.25 mg/kg/injection, schedule: Q01DX009 (ip), vehicle: other) is reported as 100 % of control. The T/C (dose: 6.25 mg/kg/injection, schedule: Q04DX003 (ip), vehicle: other) was 103 % of control, the T/C (dose: 12.5 mg/kg/injection, schedule: Q04DX003 (ip), vehicle: other) was 100 % of control and the T/C (dose: 25.0 mg/kg/injection, schedule: Q04DX003 (ip), vehicle: other) was 105 % of control.
With `O=C1/C(=C/c2ccc(Cl)c(Cl)c2)CCC/C1=C\c1ccc(Cl)c(Cl)c1` the T/C (dose: 100.0 mg/kg/injection, schedule: Q04DX003 (ip), vehicle: Klucel (hydroxypropylcellulose) (HPC)) was 98 % of control, the T/C (dose: 200.0 mg/kg/injection, schedule: Q04DX003 (ip), vehicle: Klucel (hydroxypropylcellulose) (HPC)) was 100 % of control and the T/C (dose: 400.0 mg/kg/injection, schedule: Q04DX003 (ip), vehicle: Klucel (hydroxypropylcellulose) (HPC)) was 98 % of control.
